Test results taken from patent publication US7851436B2, “Inhibition of migration and induction of cell death by the type II collagen amino propeptides” (Washington University, priority 2007, dated 2010).
Entries after “also recorded” stand apart in the source; their conditions may differ.

Tested on: FGF induced mouse cornea neovascularization
Assay: In vivo mouse cornea angiogenesis inhibition assay
Conditions: Balb/c mice, osmotic pumps, one week
Description: FGF containing PolyHEMA pellets were implanted into the corneas of 6 week old Balb/c mice. The mice received osmotic pumps containing a number of proteins to measure the ability of each protein to inhibit angiogenesis. After one week the mice were sacrificed and angiogenesis was quantified based on the total vessel length seen from fluorescently labeled vessels.
To prepare a FGF Pellet (67 ng/quarter pellet) PBS (1 μl of 1×PBS pH 7.4), sucralfate (Sigma, #S0652)(1 μL of a 100 mg/mL suspension of sucralfate), Human FGF-2 (Peprotech, 100-1 8B)(1 μL of 3.2 mg/mL FGF-2), and poly-hema (poly(2-hydroxyethyl methacrylate), Sigma, P3932)(3 μL of 250 mg/mL poly-hema) were combined. Pellets (0.5 μL) were prepped on parafilm, air dried for 10-20 mins, and divided into quarters. The resulting pellets were sealed with parafilm and stored at −20° C. until needed.
To implant the pellet, a mouse was injected with Ketamine/Xylazine (about 0.1 mg KX/gram mouse, IP injection). […]
After one week the mice are injected with same amount of Ketamine given during the implantation procedure. […] Any remaining tissues will show up when the cornea is mounted and viewed with fluorescence. […] Angiogenesis is measured by total vessel outgrowth based on the fluorescently stained blood vessels using Metamorph software (FIG. 9).

## PIIBNP: Recombinant human Type IIB procollagen NH2-propeptide (exons 3-8, lacking exon 2), expressed as GST fusion protein
FGF pellets
  inhibition of angiogenesis (cornea neovascularization): inhibits angiogenesis in vivo; also recorded: suppression of neovascularization
  toxicity: no apparent toxicity
